Laboratory results taken from article PMC7555825, “New Insights of the Zn(II)-Induced P2 × 4R Positive Allosteric Modulation: Role of Head Receptor Domain SS2/SS3, E160 and D170” (International Journal of Molecular Sciences, 2020).
Where a chain is given by its changes, count along the chain named. Blank lines part the entries; values can stand above or below the compound they belong to.

Assays:
rP2 × 4R = target: T1, rP2 × 4R (Rattus norvegicus, UniProt P51577); assay: ATP concentration–response curves, two-electrode voltage clamp in oocytes expressing wild type rP2 × 4R; assay type: cell-based
T1 construct: host or cells: Xenopus laevis oocytes (intranuclear plasmid injection, pcDNA3)
T1 sequence (P51577 1-388): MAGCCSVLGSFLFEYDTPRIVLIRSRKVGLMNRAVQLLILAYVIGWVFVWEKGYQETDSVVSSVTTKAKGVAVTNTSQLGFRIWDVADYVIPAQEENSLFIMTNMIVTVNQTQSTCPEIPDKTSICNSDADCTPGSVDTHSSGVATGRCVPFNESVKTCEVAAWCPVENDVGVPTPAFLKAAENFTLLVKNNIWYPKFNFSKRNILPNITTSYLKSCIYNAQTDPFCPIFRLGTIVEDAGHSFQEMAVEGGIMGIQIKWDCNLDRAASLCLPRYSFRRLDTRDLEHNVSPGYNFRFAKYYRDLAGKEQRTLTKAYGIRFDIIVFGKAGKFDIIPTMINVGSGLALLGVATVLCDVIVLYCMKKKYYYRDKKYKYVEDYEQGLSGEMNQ

rP2 × 4R C149A mutant = target: T2, rP2 × 4R C149A mutant (Rattus norvegicus, UniProt P51577, C149A); assay: ATP concentration–response curves, voltage clamp, C149A mutant; assay type: cell-based; details: for EC50: ATP EC50, C149A
T2 construct: host or cells: Xenopus laevis oocytes
T2 sequence (P51577 1-388 C149A): T1 sequence (P51577 1-388) with C149A

rP2 × 4R C159T mutant = target: T3, rP2 × 4R C159T mutant (Rattus norvegicus, UniProt P51577, C159T); assay: ATP concentration–response curves, voltage clamp, C159T mutant; assay type: cell-based; details: for EC50: ATP EC50, C159T
T3 construct: expressed in transfected cells; host or cells: Xenopus laevis oocytes
T3 sequence (P51577 1-388 C159T): T1 sequence (P51577 1-388) with C159T

[1] = target: T4, rP2 × 4R C132A/C159A mutant (Rattus norvegicus, UniProt P51577, C132A/C159A); assay: ATP concentration–response curves, voltage clamp, C132A/C159A double mutant; assay type: cell-based; details: for EC50: ATP EC50, C132A/C159A
T4 construct: host or cells: Xenopus laevis oocytes
T4 sequence (P51577 1-388 C132A/C159A): T1 sequence (P51577 1-388) with C132A, C159A

[2] = target: T5, rP2 × 4R C132T/C159T mutant (Rattus norvegicus, UniProt P51577, C132T/C159T); assay: ATP concentration–response curves, voltage clamp, C132T/C159T double mutant; assay type: cell-based
T5 construct: expressed in transfected cells; host or cells: Xenopus laevis oocytes
T5 sequence (P51577 1-388 C132T/C159T): T1 sequence (P51577 1-388) with C132T, C159T

rP2 × 2R = target: T6, rP2 × 2R (Rattus norvegicus, UniProt P49653); assay: cell-based
T6 sequence (P49653 1-472): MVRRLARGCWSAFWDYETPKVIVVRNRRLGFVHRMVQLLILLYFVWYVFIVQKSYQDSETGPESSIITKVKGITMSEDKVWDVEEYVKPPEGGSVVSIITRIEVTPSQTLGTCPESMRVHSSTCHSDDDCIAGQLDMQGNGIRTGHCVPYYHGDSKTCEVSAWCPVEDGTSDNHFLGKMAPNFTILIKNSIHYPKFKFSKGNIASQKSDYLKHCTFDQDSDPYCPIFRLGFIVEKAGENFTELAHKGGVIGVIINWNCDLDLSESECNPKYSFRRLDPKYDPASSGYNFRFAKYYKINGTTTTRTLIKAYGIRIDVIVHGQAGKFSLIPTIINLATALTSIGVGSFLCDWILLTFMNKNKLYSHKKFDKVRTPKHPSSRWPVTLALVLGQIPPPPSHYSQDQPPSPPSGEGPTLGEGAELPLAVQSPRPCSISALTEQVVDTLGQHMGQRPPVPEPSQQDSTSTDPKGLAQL

[3] = ATP EC50, NEM treatment + Zn(II) group, control before treatment (first ATP curve)
[4] = ATP EC50, NEM treatment + vehicle group, control before treatment (first ATP curve)
[5] = ATP EC50, after 300 µM NEM + vehicle treatment, control = ATP curve after treatment

SMILES: [Cl-].[Cl-].[Zn+2] [Zn(II), zinc chloride (ZnCl2)]
- fold reduction of ATP EC50 by Zn(II) (rP2 × 4R; 10 µM Zn(II), vehicle-treated oocytes): 3.82 fold
- fold leftward shift of ATP EC50 by Zn(II) (rP2 × 4R; WT, matched paired control oocytes, 10 µM Zn(II)): 3.45 fold
- fold ATP EC50 decrease by Zn(II) (rP2 × 4R C149A mutant; C149A, 10 µM Zn(II)): 1.73 fold
- fold ATP EC50 reduction by Zn(II) (rP2 × 4R C159T mutant; C159T, 10 µM Zn(II)): 5.32 fold
- fold reduction in ATP EC50 by Zn(II) ([1]; C132A/C159A, 10 µM Zn(II)): 17.1 fold
- fold ATP EC50 reduction by Zn(II) ([2]; 10 µM Zn(II)): 5.5 fold

- EC50 (rP2 × 4R; [3]): 24.5 ± 9.1 µM
- EC50 (rP2 × 4R; [4]): 23 ± 8.3 µM
- EC50 (rP2 × 4R; ATP EC50, P2 × 4 WT, control): 27.5 ± 10.6 µM
- EC50 (rP2 × 4R; ATP EC50, after 300 µM DTNB + 10 µM Zn(II) treatment and washout, Figure S3): 79.8 ± 64.4 µM
- EC50 (rP2 × 4R; ATP EC50, after 300 µM NEM + 10 µM Zn(II) treatment, control = ATP curve after treatment): 44.9 ± 17.7 µM
- EC50 (rP2 × 4R; [5]): 23.8 ± 7 µM
- EC50 (rP2 × 4R; ATP EC50, control of the DTNB + Zn(II) experiment, Figure S3): 50.3 ± 16 µM
- EC50 (rP2 × 4R; ATP EC50, vehicle-treated oocytes (Barth's buffer), Figure 1A, without Zn(II)): 35.3 ± 6.6 µM
- Imax (rP2 × 4R; after 300 µM NEM + 10 µM Zn(II) treatment, ATP curve in presence of 10 µM Zn(II)): 9.3 ± 2.2 µA
- EC50 (rP2 × 4R C149A mutant; +10 µM Zn(II)): 22.5 ± 7.5 µM
- EC50 (rP2 × 4R C149A mutant; control): 39 ± 16.7 µM
- Imax (rP2 × 4R C149A mutant; C149A, +10 µM Zn(II)): 10.7 ± 3.5 µA
- EC50 (rP2 × 4R C159T mutant; +10 µM Zn(II)): 7 ± 2 µM
- EC50 (rP2 × 4R C159T mutant; control): 37.3 ± 8.8 µM
- EC50 ([1]; +10 µM Zn(II)): 4.5 ± 1.6 µM
- EC50 ([1]; control): 77.1 ± 24.1 µM
- EC50 ([2]; control): 27.4 ± 13.6 µM
- Imax ([2]; control): 3.2 ± 0.7 µA
- EC50 (rP2 × 2R; [3]): 39.9 ± 8.3 µM
- EC50 (rP2 × 2R; [4]): 67.7 ± 13.3 µM
- EC50 (rP2 × 2R; ATP EC50, after 300 µM NEM + 30 µM Zn(II) treatment, control = ATP curve after treatment): 33 ± 7.4 µM
- EC50 (rP2 × 2R; [5]): 35 ± 9.2 µM
- EC50 (rP2 × 2R; ATP EC50, vehicle treatment, Figure 1D, without Zn(II)): 56.4 ± 7.4 µM
SMILES: Nc1ncnc2c1ncn2[C@@H]1O[C@H](COP(=O)(O)OP(=O)(O)OP(=O)(O)O)[C@@H](O)[C@H]1O [ATP, adenosine triphosphate]
